{
  "source": "paper PMC11606603",
  "about": "“The membrane domains of mammalian adenylyl cyclases are lipid receptors” (eLife, 2024)",
  "assay_type_in_all_cases": "biochemical",
  "key": {"mAC1": {"biological_target": "T1, mAC1 (Homo sapiens, UniProt Q08828)", "T1 construct": "Human mAC genes were from GenScript and fitted with a C-terminal FLAG-tag; FLAG (C); made in house; host or cells: HEK293, permanently transfected; membrane preparation", "T1 sequence (Q08828 whole entry)": "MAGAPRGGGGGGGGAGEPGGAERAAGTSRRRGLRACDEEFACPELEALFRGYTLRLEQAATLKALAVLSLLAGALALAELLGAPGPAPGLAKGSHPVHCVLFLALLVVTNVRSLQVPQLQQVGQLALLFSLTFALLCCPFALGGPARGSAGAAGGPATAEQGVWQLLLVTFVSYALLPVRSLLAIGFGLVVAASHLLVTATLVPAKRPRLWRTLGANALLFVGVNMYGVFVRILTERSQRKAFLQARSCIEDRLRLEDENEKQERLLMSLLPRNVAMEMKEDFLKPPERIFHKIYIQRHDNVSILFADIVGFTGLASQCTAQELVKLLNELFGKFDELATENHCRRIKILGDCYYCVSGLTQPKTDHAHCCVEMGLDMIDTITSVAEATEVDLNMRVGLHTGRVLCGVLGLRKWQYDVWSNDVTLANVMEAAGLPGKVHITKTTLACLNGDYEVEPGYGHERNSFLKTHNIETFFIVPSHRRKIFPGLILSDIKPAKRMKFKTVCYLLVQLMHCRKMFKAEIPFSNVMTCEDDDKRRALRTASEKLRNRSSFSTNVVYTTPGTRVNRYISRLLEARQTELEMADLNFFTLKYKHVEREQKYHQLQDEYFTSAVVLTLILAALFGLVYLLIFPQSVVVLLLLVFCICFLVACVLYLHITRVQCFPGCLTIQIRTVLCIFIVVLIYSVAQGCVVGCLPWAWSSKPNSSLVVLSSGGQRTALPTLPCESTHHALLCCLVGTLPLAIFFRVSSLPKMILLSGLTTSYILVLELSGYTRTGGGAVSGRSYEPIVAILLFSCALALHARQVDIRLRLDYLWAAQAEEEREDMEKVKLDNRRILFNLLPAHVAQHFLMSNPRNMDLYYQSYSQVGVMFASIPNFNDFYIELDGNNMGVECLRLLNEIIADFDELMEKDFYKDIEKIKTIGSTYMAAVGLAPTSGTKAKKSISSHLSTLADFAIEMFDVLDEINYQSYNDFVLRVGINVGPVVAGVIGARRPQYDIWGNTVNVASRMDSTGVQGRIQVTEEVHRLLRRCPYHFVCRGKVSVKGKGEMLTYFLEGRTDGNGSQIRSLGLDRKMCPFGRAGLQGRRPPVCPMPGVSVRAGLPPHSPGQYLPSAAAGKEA", "assay": "AC assay, Gsα-stimulated mAC1 in membranes from transfected HEK293 cells", "details": "for activity [%] (100% = 300nM Gsα stimulation): mAC1", "summary_of_the_method": "(§1)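 Adenylyl cyclase activity was measured in 100,000 × g membrane fractions prepared from HEK293 cells permanently transfected with C-terminally FLAG-tagged human AC isoforms. Assays contained 1 mM ATP and 2 mM MgCl2 with an ATP-regenerating system at pH 7.5.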"}, "mAC4": {"biological_target": "T2, mAC4 (Homo sapiens, UniProt Q8NFM4)", "T2 construct": "Human mAC genes were from GenScript and fitted with a C-terminal FLAG-tag; FLAG (C); made in house; host or cells: HEK293, permanently transfected; membrane preparation", "T2 sequence (Q8NFM4 1-1077)": "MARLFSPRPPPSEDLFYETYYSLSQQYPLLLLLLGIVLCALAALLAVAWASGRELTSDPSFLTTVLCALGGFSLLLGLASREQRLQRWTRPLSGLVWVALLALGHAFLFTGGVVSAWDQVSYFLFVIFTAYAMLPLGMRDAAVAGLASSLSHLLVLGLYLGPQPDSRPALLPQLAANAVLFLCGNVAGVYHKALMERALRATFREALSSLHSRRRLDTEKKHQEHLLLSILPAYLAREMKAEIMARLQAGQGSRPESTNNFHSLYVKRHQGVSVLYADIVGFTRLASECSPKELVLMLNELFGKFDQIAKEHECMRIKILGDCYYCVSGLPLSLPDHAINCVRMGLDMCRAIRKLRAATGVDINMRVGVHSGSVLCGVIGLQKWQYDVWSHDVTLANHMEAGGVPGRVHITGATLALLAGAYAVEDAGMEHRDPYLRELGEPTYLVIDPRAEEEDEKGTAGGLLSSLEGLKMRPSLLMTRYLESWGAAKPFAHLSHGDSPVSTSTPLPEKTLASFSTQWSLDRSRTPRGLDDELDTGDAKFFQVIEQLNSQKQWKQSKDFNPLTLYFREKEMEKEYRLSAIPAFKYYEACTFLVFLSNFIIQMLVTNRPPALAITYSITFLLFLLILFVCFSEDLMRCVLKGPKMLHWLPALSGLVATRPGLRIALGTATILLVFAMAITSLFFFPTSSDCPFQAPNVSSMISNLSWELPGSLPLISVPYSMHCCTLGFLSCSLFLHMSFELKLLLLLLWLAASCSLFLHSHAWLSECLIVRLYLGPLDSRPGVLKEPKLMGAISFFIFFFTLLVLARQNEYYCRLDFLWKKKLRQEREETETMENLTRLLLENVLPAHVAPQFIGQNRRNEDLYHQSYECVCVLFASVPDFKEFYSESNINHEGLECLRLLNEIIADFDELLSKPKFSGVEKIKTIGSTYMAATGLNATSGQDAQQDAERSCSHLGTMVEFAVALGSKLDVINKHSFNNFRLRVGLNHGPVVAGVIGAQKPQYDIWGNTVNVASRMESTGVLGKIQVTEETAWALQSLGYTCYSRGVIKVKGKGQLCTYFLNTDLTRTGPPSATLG", "assay": "AC assay, Gsα-stimulated mAC4 in membranes from transfected HEK293 cells", "details": "for activity [%] (100% = 300nM Gsα stimulation): mAC4", "summary_of_the_method": "as §1"}, "mAC6": {"biological_target": "T3, mAC6 (Homo sapiens, UniProt O43306)", "T3 construct": "Human mAC genes were from GenScript and fitted with a C-terminal FLAG-tag; FLAG (C); made in house; host or cells: HEK293, permanently transfected; membrane preparation", "T3 sequence (O43306 whole entry)": "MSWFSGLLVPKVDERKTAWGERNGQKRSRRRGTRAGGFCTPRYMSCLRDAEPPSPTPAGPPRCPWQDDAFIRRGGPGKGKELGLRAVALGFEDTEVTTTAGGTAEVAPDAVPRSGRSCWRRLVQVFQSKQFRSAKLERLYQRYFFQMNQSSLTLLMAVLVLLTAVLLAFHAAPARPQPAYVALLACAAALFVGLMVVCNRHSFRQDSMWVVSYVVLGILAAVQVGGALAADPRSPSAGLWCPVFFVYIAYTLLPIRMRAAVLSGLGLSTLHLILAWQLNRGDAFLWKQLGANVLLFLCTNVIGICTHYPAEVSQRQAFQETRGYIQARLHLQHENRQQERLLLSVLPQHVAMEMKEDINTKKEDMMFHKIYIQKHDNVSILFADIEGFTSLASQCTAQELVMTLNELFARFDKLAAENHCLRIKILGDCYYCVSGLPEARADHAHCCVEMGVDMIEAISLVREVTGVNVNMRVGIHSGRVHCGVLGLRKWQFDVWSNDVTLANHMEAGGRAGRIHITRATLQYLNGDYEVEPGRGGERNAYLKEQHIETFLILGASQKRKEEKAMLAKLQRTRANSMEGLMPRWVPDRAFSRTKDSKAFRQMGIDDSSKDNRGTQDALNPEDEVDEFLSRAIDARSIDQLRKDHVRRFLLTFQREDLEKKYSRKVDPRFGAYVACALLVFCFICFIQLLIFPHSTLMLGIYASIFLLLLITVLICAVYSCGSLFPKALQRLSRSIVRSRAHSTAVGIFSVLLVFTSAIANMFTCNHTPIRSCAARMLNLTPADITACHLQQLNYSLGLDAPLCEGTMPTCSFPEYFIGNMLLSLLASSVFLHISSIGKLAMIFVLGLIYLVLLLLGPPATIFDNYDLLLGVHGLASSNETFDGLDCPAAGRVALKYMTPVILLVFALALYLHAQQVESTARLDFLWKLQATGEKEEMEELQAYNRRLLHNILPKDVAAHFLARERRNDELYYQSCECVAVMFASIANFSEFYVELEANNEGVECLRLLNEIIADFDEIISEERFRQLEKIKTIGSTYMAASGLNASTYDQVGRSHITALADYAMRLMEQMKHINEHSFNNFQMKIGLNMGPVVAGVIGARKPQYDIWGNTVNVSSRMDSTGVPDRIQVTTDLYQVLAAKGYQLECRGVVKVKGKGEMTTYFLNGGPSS", "assay": "AC assay, Gsα-stimulated mAC6 in membranes from transfected HEK293 cells", "details": "for activity [%] (100% = 300nM Gsα stimulation): mAC6", "summary_of_the_method": "as §1"}, "mAC5": {"biological_target": "T4, mAC5 (Homo sapiens, UniProt O95622)", "T4 construct": "Human mAC genes were from GenScript and fitted with a C-terminal FLAG-tag; FLAG (C); made in house; host or cells: HEK293, permanently transfected; membrane preparation", "T4 sequence (O95622 whole entry)": "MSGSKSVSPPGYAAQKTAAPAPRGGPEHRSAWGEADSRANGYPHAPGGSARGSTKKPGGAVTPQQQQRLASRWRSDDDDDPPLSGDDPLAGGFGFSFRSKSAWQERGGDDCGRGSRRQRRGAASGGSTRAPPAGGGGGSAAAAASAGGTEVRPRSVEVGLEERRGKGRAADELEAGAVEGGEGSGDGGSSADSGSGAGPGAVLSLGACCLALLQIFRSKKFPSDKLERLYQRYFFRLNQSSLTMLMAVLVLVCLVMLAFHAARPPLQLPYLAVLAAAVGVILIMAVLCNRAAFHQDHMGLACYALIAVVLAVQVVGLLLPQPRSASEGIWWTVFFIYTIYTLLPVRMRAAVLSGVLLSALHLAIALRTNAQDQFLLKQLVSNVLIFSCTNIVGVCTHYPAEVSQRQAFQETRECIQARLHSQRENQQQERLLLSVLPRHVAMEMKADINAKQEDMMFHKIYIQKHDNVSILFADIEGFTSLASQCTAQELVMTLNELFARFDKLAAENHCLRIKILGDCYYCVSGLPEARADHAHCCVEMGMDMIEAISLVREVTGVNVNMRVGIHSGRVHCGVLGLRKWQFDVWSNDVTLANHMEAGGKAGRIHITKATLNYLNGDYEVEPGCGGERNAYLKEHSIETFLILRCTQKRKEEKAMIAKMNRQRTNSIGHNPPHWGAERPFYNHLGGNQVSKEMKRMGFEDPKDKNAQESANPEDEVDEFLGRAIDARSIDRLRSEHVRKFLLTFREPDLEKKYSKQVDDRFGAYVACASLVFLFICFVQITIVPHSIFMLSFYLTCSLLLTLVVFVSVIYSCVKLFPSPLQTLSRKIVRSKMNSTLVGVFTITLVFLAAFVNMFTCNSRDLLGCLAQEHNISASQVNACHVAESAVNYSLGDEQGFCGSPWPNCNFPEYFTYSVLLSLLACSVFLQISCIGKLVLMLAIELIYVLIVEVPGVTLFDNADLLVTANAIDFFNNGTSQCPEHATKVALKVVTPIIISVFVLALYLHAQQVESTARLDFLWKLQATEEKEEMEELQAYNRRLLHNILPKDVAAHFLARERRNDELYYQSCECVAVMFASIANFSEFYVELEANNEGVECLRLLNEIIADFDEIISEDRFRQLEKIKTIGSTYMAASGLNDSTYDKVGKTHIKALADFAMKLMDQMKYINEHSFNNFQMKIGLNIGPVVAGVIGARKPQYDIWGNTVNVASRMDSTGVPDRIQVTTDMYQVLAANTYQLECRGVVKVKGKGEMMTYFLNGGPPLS", "assay": "AC assay, Gsα-stimulated mAC5 in membranes from transfected HEK293 cells", "details": "for activity [%] (100% = 300nM Gsα stimulation): mAC5", "summary_of_the_method": "as §1"}, "mAC8": {"biological_target": "T5, mAC8 (Homo sapiens, UniProt P40145)", "T5 construct": "Human mAC genes were from GenScript and fitted with a C-terminal FLAG-tag; FLAG (C); made in house; host or cells: HEK293, permanently transfected; membrane preparation", "T5 sequence (P40145 whole entry)": "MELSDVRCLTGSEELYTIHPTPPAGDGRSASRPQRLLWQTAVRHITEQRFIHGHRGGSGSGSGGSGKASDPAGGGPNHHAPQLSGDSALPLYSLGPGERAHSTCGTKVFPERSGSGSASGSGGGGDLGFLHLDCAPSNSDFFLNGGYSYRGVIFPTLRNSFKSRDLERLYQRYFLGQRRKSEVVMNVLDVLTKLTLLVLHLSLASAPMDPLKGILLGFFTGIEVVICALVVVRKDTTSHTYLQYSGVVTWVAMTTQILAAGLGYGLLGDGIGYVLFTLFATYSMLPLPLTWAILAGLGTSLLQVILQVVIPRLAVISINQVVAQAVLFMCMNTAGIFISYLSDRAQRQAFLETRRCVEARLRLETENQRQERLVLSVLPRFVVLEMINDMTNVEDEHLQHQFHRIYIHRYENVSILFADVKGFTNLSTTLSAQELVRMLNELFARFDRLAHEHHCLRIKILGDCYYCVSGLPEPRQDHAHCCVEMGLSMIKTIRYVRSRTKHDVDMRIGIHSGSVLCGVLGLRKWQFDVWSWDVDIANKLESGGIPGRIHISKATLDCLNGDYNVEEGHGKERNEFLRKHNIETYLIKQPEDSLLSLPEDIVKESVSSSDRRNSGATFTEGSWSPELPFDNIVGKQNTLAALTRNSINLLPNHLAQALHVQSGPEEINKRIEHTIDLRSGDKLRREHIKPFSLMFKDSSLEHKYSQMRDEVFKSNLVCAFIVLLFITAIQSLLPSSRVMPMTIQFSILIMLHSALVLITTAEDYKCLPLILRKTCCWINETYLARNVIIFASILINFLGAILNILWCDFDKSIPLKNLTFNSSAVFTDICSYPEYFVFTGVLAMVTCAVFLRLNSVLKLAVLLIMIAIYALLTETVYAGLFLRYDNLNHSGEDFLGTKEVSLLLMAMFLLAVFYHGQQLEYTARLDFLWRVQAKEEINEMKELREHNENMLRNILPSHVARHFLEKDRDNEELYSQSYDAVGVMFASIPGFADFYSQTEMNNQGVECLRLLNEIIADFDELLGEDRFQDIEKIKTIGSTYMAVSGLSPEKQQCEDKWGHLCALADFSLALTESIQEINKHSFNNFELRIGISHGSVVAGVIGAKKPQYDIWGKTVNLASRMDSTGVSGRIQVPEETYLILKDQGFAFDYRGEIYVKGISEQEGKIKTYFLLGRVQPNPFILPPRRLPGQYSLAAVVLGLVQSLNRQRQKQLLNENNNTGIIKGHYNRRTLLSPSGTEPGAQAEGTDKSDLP", "assay": "AC assay, Gsα-stimulated mAC8 in membranes from transfected HEK293 cells", "details": "20µM fatty acid concentration", "summary_of_the_method": "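cAMP detected with a Cisbio kit, calibrated by a cAMP standard curve each run. Reaction: 1 mM ATP, 2 mM MgCl2, 3 mM creatine phosphate, 60 μg/ml creatine kinase, 50 mM MOPS pH 7.5. Enzyme source: membranes of stably transfected HEK293 (G418-selected) carrying FLAG-tagged human AC.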"}, "[1]": {"details": "attenuation of 300 nM Gsα-stimulated activity"}, "[2]": {"details": "6 µM, 300 nM Gsα, single experiments"}, "[3]": {"details": "30 µM, 300 nM Gsα, single experiments"}, "[4]": {"details": "100 µM, 300 nM Gsα, single experiments"}},
  "note": "Several values for one entry are separate records, joined by “and”; a condition that tells them apart may be missing. Equal entries are not always repeated. Where two headings read alike, the source gives them in different places.",
  "data": [
    {"smiles": "CCCCC/C=C\\C/C=C\\C/C=C\\C/C=C\\CCCC(=O)NCCO", "note": "[Anandamide, arachidonoylethanolamide]", "values": [
      {"measurement": "IC50", "setting": "mAC1", "value": 29, "unit": "µM"},
      {"measurement": "activity [%] (100% = 300nM Gsα stimulation)", "setting": "mAC1; Anandamide 0.1 µM", "value": 100, "unit": "%"},
      {"measurement": "activity [%] (100% = 300nM Gsα stimulation)", "setting": "mAC1; Anandamide 1 µM", "value": "81% and 83% and 116% and 100% and 88%"},
      {"measurement": "activity [%] (100% = 300nM Gsα stimulation)", "setting": "mAC1; Anandamide 3 µM", "value": "98% and 83% and 114% and 101% and 97%"},
      {"measurement": "activity [%] (100% = 300nM Gsα stimulation)", "setting": "mAC1; Anandamide 10 µM", "value": "92% and 80% and 101% and 94% and 81%"},
      {"measurement": "activity [%] (100% = 300nM Gsα stimulation)", "setting": "mAC1; Anandamide 30 µM", "value": "41% and 63% and 74% and 78% and 71%"},
      {"measurement": "activity [%] (100% = 300nM Gsα stimulation)", "setting": "mAC1; Anandamide 60 µM", "value": "39% and 40% and 53% and 59% and 57%"},
      {"measurement": "Effect of anandamide on Gsα-stimulated mAC4", "setting": "mAC4; concentration–response, higher concentrations, in words", "value": "distinctly not"},
      {"measurement": "activity [%] (100% = 300nM Gsα stimulation)", "setting": "mAC4; Anandamide 0.1 µM", "value": 100, "unit": "%"},
      {"measurement": "activity [%] (100% = 300nM Gsα stimulation)", "setting": "mAC4; Anandamide 3 µM", "value": "86% and 113% and 96% and 121% and 82%"},
      {"measurement": "activity [%] (100% = 300nM Gsα stimulation)", "setting": "mAC4; Anandamide 30 µM", "value": 107, "unit": "%"},
      {"measurement": "IC50", "setting": "mAC6; [1]", "value": "23 µM and 22 µM"},
      {"measurement": "activity [%] (100% = 300nM Gsα stimulation)", "setting": "mAC6; Anandamide 0.1 µM", "value": 100, "unit": "%"},
      {"measurement": "activity [%] (100% = 300nM Gsα stimulation)", "setting": "mAC6; Anandamide 0.5 µM", "value": "100% and 94%"},
      {"measurement": "activity [%] (100% = 300nM Gsα stimulation)", "setting": "mAC6; Anandamide 1 µM", "value": 89, "unit": "%"},
      {"measurement": "activity [%] (100% = 300nM Gsα stimulation)", "setting": "mAC6; Anandamide 20 µM", "value": 89, "unit": "%"},
      {"measurement": "activity [%] (100% = 300nM Gsα stimulation)", "setting": "mAC6; Anandamide 30 µM", "value": "60% and 59% and 57% and 63% and 40%"},
      {"measurement": "activity [%] (100% = 300nM Gsα stimulation)", "setting": "mAC6; Anandamide 35 µM", "value": 73, "unit": "%"},
      {"measurement": "activity [%] (100% = 300nM Gsα stimulation)", "setting": "mAC6; Anandamide 100 µM", "value": 26, "unit": "%"},
      {"measurement": "IC50", "setting": "mAC5; [1]", "value": 42, "unit": "µM"},
      {"measurement": "activity [%] (100% = 300nM Gsα stimulation)", "setting": "mAC5; 100µM Anandamide concentration, Figure 9 D", "value": "55% and 58% and 70% and 40% and 56% and 45% and 65% and 60%"},
      {"measurement": "activity [%] (100% = 300nM Gsα stimulation)", "setting": "mAC5; Anandamide 0.1 µM", "value": 100, "unit": "%"},
      {"measurement": "activity [%] (100% = 300nM Gsα stimulation)", "setting": "mAC5; Anandamide 0.5 µM", "value": "96% and 115% and 93% and 114% and 127%"},
      {"measurement": "activity [%] (100% = 300nM Gsα stimulation)", "setting": "mAC5; Anandamide 3 µM", "value": "122% and 77%"},
      {"measurement": "activity [%] (100% = 300nM Gsα stimulation)", "setting": "mAC5; Anandamide 8 µM", "value": 101, "unit": "%"},
      {"measurement": "activity [%] (100% = 300nM Gsα stimulation)", "setting": "mAC5; Anandamide 10 µM", "value": 99, "unit": "%"},
      {"measurement": "activity [%] (100% = 300nM Gsα stimulation)", "setting": "mAC5; Anandamide 35 µM", "value": "78% and 77% and 119%"},
      {"measurement": "activity [%] (100% = 300nM Gsα stimulation)", "setting": "mAC5; Anandamide 40 µM", "value": "58% and 74%"},
      {"measurement": "activity [%] (100% = 300nM Gsα stimulation)", "setting": "mAC5; Anandamide 80 µM", "value": 47, "unit": "%"}
    ]},
    {"smiles": "CCCCC/C=C\\C/C=C\\C/C=C\\C/C=C\\CCCC(=O)O", "note": "[Arachidonic acid, Arachidonic ((5Z,8Z,11Z,14Z)-eicosatetraenoic) acid]", "values": [
      {"measurement": "mAC8 activity [%] (100% = 300nM Gsα stimulation)", "setting": "mAC8", "value": "90% and 106% and 87%"},
      {"measurement": "Effect of lipid on 300 nM Gsα-stimulated mAC1", "setting": "mAC1; 20 µM, in words", "value": "significantly attenuated"},
      {"measurement": "IC50", "setting": "mAC1; attenuation of 300 nM Gsα-stimulated activity, read-out: IC50 for mAC1", "value": 23, "unit": "µM"},
      {"measurement": "activity [%] (100% = 300nM Gsα stimulation)", "setting": "mAC1; [2]", "value": "84% and 119% and 80% and 96% and 100% and 86% and 114% and 97%"},
      {"measurement": "activity [%] (100% = 300nM Gsα stimulation)", "setting": "mAC1; [3]", "value": "58% and 69% and 46%"},
      {"measurement": "activity [%] (100% = 300nM Gsα stimulation)", "setting": "mAC1; 60 µM, 300 nM Gsα, single experiments", "value": "12% and 11%"},
      {"measurement": "activity [%] (100% = 300nM Gsα stimulation)", "setting": "mAC1; [4]", "value": "12% and 2% and 3%"},
      {"measurement": "IC50", "setting": "mAC4", "value": 36, "unit": "µM"},
      {"measurement": "Effect of lipid on 300 nM Gsα-stimulated mAC4", "setting": "mAC4; 20 µM, in words", "value": "significantly attenuated"},
      {"measurement": "activity [%] (100% = 300nM Gsα stimulation)", "setting": "mAC4; 1 µM, 300 nM Gsα, single experiments", "value": "68% and 108% and 85% and 103% and 89% and 87% and 67% and 75%"},
      {"measurement": "activity [%] (100% = 300nM Gsα stimulation)", "setting": "mAC4; 3 µM, 300 nM Gsα, single experiments", "value": "72% and 95% and 69% and 73% and 97% and 106% and 108%"},
      {"measurement": "activity [%] (100% = 300nM Gsα stimulation)", "setting": "mAC4; [2]", "value": "70% and 85% and 107% and 83% and 91% and 126%"},
      {"measurement": "activity [%] (100% = 300nM Gsα stimulation)", "setting": "mAC4; [3]", "value": "84% and 74% and 88%"},
      {"measurement": "activity [%] (100% = 300nM Gsα stimulation)", "setting": "mAC4; [4]", "value": "22% and 14% and 13%"},
      {"measurement": "mAC5 activity [%] (100% = 300nM Gsα stimulation)", "setting": "mAC5; 20µM fatty acid concentration", "value": "97% and 73% and 120% and 131% and 110%"}
    ]}
  ]
}
